Laboratory results reported in PMC6425991, “Peptide Super-Agonist Enhances T-Cell Responses to Melanoma” (Frontiers in Immunology, 2019).
“And” between values parts separate entries of the source, which are not always exact repeats. Identical values can stand only once.

Legend:
HLA A2 = target: T1, HLA A2 (Homo sapiens, UniProt P04439, D140Y/D185E/D98H/E176V/E277Q/G131W/G231S/I119V/I121R/I166T/I218V/L300P/L318F/N151K/N90K/P208A/P217A/Q86G/Q94H/R138H/R169H/T345S); assay type: binding
T1 construct: T2 cells (TAP deficient HLA A2^+) were incubated overnight in serum-free media; endogenous in cells; host or cells: T2 cells

[1] = tested on: CD8 T-cells of healthy donors; settings: cited from earlier work
Text: Analysis of T-cells that responded to autologous tumour within the TIL infusion product used to cure an HLA A2^+ stage IV melanoma patient (code MM909.24), and also in the blood 6 months post cure, identified several persistent TCR clonotypes ([16], [17]). […] […]. Alteration of TCR contact residues has the advantage that the resultant APL are highly likely to be viewed as “nonself” and may therefore have increased potential for breaking immune tolerance. […]. PS-CPL have been explored as a way of selecting such “mimitopes” ([19], [33], [50]). This approach ...

MM909.24 TIL = experiment: Intracellular cytokine staining (IFNγ) of TIL infusion product; assay type: cell-based, human; settings: T2 cells as antigen presenting cells, 5 h, peptide 10^−5-10^−12 M
Procedure: Cells were then washed and stained with violet Live/Dead fixable dead cell stain, VIVID (Life Technologies, Paisley, UK) and for surface markers with anti-CD3 peridinin chlorophyll protein (PerCP) (clone BW264/56, Miltenyi Biotech, Bergisch Gladbach, Germany) and anti-CD8 allophycocyanin (APC)-Vio770 (clone BW135/80, Miltenyi Biotech) antibodies. Cells were prepared for ICS by incubating with Cytofix/Cytoperm™ (BD Biosciences), according to manufacturer's instructions, before staining for 20 min on ice with anti-IFNγ APC antibody (clone 45-15, Miltenyi Biotech). Cells were resuspended in FACS buffer (PBS supplemented with 2% FBS) before acquisition on BD FACS Canto II (BD Biosciences). Data was analysed using FlowJo Software (TreeStar, Ashland, OR, USA).

CD8 T-cell clone ST8.24 = experiment: Peptide activation assay, MIP-1β ELISA; assay type: cell-based, human; settings: overnight, T2 cells, peptide titration
Procedure: T-cell clones were cultured in R5 for 24 h prior to assay to reduce spontaneous activation. Assays were performed overnight in R5 in 96 U well plates with 3 × 10^5 T-cells and 6 × 10^5 T2 cells with and without desired peptides. The following day, supernatants were harvested, diluted with 70 μL R0 (R10 but without serum) and a half-area-well MIP-1β Enzyme-linked Immunosorbent Assay (ELISA) was carried out as per the manufacturer's instructions (R&D Systems, Minneapolis, MN). A decamer combinatorial peptide library (Pepscan Presto BV, Lelystad, The Netherlands) was stored and used as previously described ([19]). Individual peptides were synthesised to ≥95% purity (GL Biochem, Shanghai, China, or Peptide Protein Research Ltd, Hampshire, UK) stored at −80°C. […] Polyclonal T-cell populations were cultured overnight in R5 in order to reduce spontaneous activation. The following day an IFNγ Enzyme-Linked ImmunoSpot (ELISpot) assay was performed, using Multiscreen plates® (Millipore, Massachusetts, MA) as per the manufacturers' instructions (Mabtech, Nacka Strand, Sweden). 5 × 10^4 T-cells were screened against 10 candidate super-agonist peptides (described previously) at a concentration range of 10^−4 to 10^−8 mM. ELISpot data was collected using an ImmunoSpot® plate reader (CTL, Shaker Heights, Ohio, OH).

Row | Sequence | MFI of HLA A2 expression (HLA A2) | healthy donors in which the peptide induced greater CD8 T-cell responses [1] | IFNγ production by TIL infusion product (MM909.24 TIL) | activation of clone ST8.24 (MIP-1β ELISA) (CD8 T-cell clone ST8.24)
1 | DRASFIKNL | 197 and 191 and 182 and 211 and 183 and 188 | – | – | –
2 | FATGIGIITV [super-agonist peptide of clone MEL5 from the authors' previous work] | – | 6 of 10 | failed to induce IFNγ production | failed to activate
3 | HPVGEADYFEY | 183 and 202 and 199 and 159 and 231 | – | – | –
